Experimental data reported in US20220039395A1, “INSECT CONTROL AGENTS” (priority 2018, published 2022).
“Also recorded” adds a separate entry of the source. Square brackets hold non-standard residues; d marks the D form. Aib = CC(C)(N)C(=O)O

Assays:
Aphids = assay: Feeding with peptides in artificial diet, mortality without other stress; format: in vivo, Myzus persicae; conditions: for Dead (48 h) / Dead (72 h) / Dead (96 h) / Dead (120 h) / Dead (144 h): artificial diet supplemented with peptide; for effect on mortality in the absence of additional stressors: no additional stress conditions
Experimental: A standard artificial diet for M. persicae was produced as described in Van Emden (2009) and provided the basal diet to which neuropeptide analogues were added for screening purposes. Neuropeptide analogues were diluted individually in the artificial diet to a pre-determined recommended concentration as follows: 1895 (3.5×10^−5 M) and 2019 (2.0×10^−5 M).
Feeding apparatus were constructed using a set-up developed by Sadeghi et al (2009). For this, a piece of Parafilm was stretched over a Plexiglas ring (h=4 cm, Ø=3 cm) and 100 μl of the artificial diet containing the desired neuropeptide analogue was pipette onto the Parafilm membrane. A second piece of Parafilm, stretched to 4 times the original thickness, was stretched over the original layer, sandwiching the artificial diet between two layers of Parafilm. A strip of Parafilm was wrapped around the circumference of the Plexiglas ring, sealing in the diet. A plastic ring (h=1.2 cm, Ø=3.4 cm) was subsequently placed over the Parafilm layer, creating a walled chamber in which to house test aphids in contact with the Parafilm layer containing the artificial diet. Finally, a small Petri dish (h=1 cm, Ø=3.6 cm), modified for ventilation with net cloth, was placed on top of each feeding apparatus to prevent aphid escape.
To obtain aphids for use in experiments, reproducing anholocyclic adults were placed on individual excised leaves of Chinese cabbage at densities of 5 adults per leaf and allowed to reproduce for 24 h. The stem of each excised leaf was held within a 0.5 mL Eppendorf tube containing water via a punctured hole in the Eppendorf lid, and placed individually within a microcage (L=4 cm, Ø=9.5 cm). Following 24 h, adults were removed and resultant first instar nymphs (<1 day old and synchronised in age to within 24 h) retained. Nymphs were allowed to develop on the Chinese cabbage for 5 days. On day 5, (3rd instar) nymphs were transferred onto the artificial diet containing a neuropeptide analogue at densities of 1 per feeding chamber and monitored daily until death. Aphids were transferred to fresh artificial diet (containing neuropeptide analogue) every 5 days. Life history traits recorded include age at first reproduction, number of nymphs produced per 24 h period, and lifespan. From these parameters, lifetime fecundity and daily fecundity were calculated. Control groups were set up involving aphids reared on the host plant, an artificial diet without a neuropeptide analogue, and an artificial diet containing the native CAPA neuropeptide.
Aphids were reared on artificial diet, alone or supplemented with peptide 2129, 2315, 2316 or 2320. A control group (no test peptide) was reared on a host plant. No other stress conditions were applied.
For peptides 2315, 2316 and 2320, mortality was assessed at 48, 72, 96, 120 and 144 hours. A group of 9 or 10 insects was used for each time point, and all experiments were performed at least 4 times.

aphid = assay: Topical application of peptides to aphid abdomen by microinjector, mortality; format: in vivo; conditions: 9 nl of 1×10^−5 M peptide in Armid FMPC applied topically to abdomen
Experimental: (§1) For peptides 2315, 2320 and 2125, peptides were diluted individually in an Armid FMPC formulation (AkzoNobel Surface Chemistry, Stenungsund, Sweden) to concentration of 1×10^−5 M. Using a Nanoject II Auto-Nanoliter micro-injector, 9 nl of the peptide solution was applied topically to the abdomen of a pre-reproductive adult aphid, coating the cuticle in the solution. Aphids were returned to the host plant and allowed to recover for 24 h before use in experiments. Control aphids were topically applied with 9 nl of the Armid FMPC formulation and, once again, allowed to recover for 24 h on the host plant before use in experiments.
Peptides were applied topically to insect abdomen by microinjector and the insects returned to the plant. Mortality was assessed after 24 hours. Separate controls were performed for each experiment. A group of 9 or 10 insects was used for each time point, and all experiments were performed 3 times.

Myzus persicae [1] = assay: Desiccation/starvation tolerance assay after peptide microinjection; format: in vivo; conditions: Myzus persicae, microinjection; for Documented effect on desiccation/starvation mortality: final concentration ×10^−5 M, relative to vehicle control; for LTime50 (h), test / Median ± IQR survival (h), test: ×10^−5 M, desiccation and starvation stress, test group
Experimental: (§2) Neuropeptides were administered to test aphids via microinjection to allow for rapid mass screening of neuropeptide analogue efficacy. For this, native neuropeptides were diluted in double distilled water (DDH2O) to a concentration of 1×10^−5 M. Neuropeptide analogues were diluted in DDH2O to the following concentrations: kinin analogues 1728 (2.5×10^−5 M), 2139 (3.5×10^−5 M), 2139-Ac (3.5×10^−5 M); CAP2b analogues 1895 (3.5×10^−5 M), 1896 (3.5×10^−5 M), 1902 (3.5×10^−5 M), 2089 (3.9×10^−5 M), 2123 (1.0×10^−5 M), 2125 (1.0×10^−5 M), 2129 (2.0×10^−5 M). Once at the desired concentration, neuropeptide solutions were administered to test aphids at an injection volume of 9 nl based on total haemolymph volume, to produce an approximate 1:20 dilution of injection volume to haemolymph. Injections were performed using a pulled glass needle and a Nanoject II Auto-Nanoliter Injector (Drummond Scientific Company, Broomall, Pa.). A vehicle control was set up for each treatment/day of experiments to account for variation in needle pulling. For this, control aphids were injected with 9 nl of DDH2O and subsequently exposed to the same experiments as aphids receiving the neuropeptide treatment. Neuropeptide treated and vehicle control aphids were subsequently used in the stress bioassays detailed below.
(§3) Anholocyclic adults of mixed age of either M. persicae or M. rosae were selected from the stock cultures and treated with a native neuropeptide or neuropeptide analogue via microinjection using the method detailed above. Treated and vehicle control aphids were allowed to recover on excised leaves of the host plant for 1 h before being placed in an empty ventilated microcage (L=4 cm, 0=9.5 cm) at densities of 10 per cage. In total, 30-40 aphids were treated for each neuropeptide treatment group and a further 30-40 for the associated vehicle control group. From the point of placement in the microcage (taken as 0 h), aphid survival was checked every hour during daylight hours and approximately every 4 h during night-time hours until the final aphid died. Survival data were subsequently analysed using a Log-rank (Mantel-Cox) text in GraphPad Prism version 7.0. LTime50 (the time taken to kill 50% of the test population) values were calculated via Probit Analysis in Minitab 17 (Minitab Inc., State College, Pa.).

Macrosiphum rosae = assay: as above; format: in vivo; conditions: Macrosiphum rosae, microinjection; for Documented effect on desiccation/starvation mortality: final concentration ×10^−5 M, relative to vehicle control; for LTime50 (h), test / Median IQR survival (h), test: ×10^−5 M, desiccation and starvation stress, test group
Experimental: as §2, §3

M. persicae = assay: Topical application under desiccation/starvation conditions; format: in vivo, Myzus persicae; conditions: data not shown
Experimental: as §1
as §3, with “In total, 30-40 aphids were treated for each neuropeptide treatment group and a further 30-40 for the associated vehicle control group. From the point of placement in the microcage (taken as 0 h), aphid survival was checked every hour during daylight hours and approximately every 4 h during night-time hours until the final aphid died.” left out

Myzus persicae [2] = assay: Cold tolerance bioassay at the discriminating temperature after microinjection; format: in vivo; conditions: M. persicae, 1 h at −9.7° C., survival assessed after 48 h, vs control
Experimental: Neuropeptides were administered to test aphids via microinjection to allow for rapid mass screening of neuropeptide analogue efficacy. For this, native neuropeptides were diluted in double distilled water (DDH2O) to a concentration of 1×10^−5 M. Neuropeptide analogues were diluted in DDH2O to the following concentrations: kinin analogues 1728 (2.5×10^−5 M), 2139 (3.5×10^−5 M), 2139-Ac (3.5×10^−5 M); CAP2b analogues 1895 (3.5×10^−5 M), 1896 (3.5×10^−5 M), 1902 (3.5×10^−5 M), 2089 (3.9×10^−5 M), 2123 (1.0×10^−5 M), 2125 (1.0×10^−5 M), 2129 (2.0×10^−5 M). […]
For this reason, and given its global pest status, only M. persicae was taken forward in cold stress assays. […] Following exposure, aphids were allowed to recover at the culture temperature in microcages containing excised leaves of the host plant and survival was assessed after 48 h. […]
Survival data were analysed using Probit analysis in MINITAB, version 17 (Minitab Inc., State College, Pa.) and the LT30 (the lethal temperature resulting in 30% mortality of a test population) was elucidated.
Pre-reproductive anholocyclic adult aphids of M. persicae were treated with neuropeptide analogues using the microinjection method detailed above. […] Following exposure, adults were allowed to recover at the culture temperature in microcages containing excised leaves of the host plant and survival was assessed after 48 h. […]

Substance	Dead (48 h) (Aphids) [%]	Dead (72 h) (Aphids) [%]	Dead (96 h) (Aphids) [%]	Dead (120 h) (Aphids) [%]	Dead (144 h) (Aphids) [%]	effect on mortality in the absence of additional stressors (Aphids)	Dead (24 h) (aphid) [%]	Documented effect on desiccation/starvation mortality (Myzus persicae [1])	LTime50 (h), test (Myzus persicae [1])	Median ± IQR survival (h), test (Myzus persicae [1])	Documented effect on desiccation/starvation mortality (Macrosiphum rosae)	LTime50 (h), test (Macrosiphum rosae)	Median IQR survival (h), test (Macrosiphum rosae)	effect on mortality (M. persicae)	effect on mortality in the absence of additional stressors (Aphids; listed as 2135)	Effect on survival/mortality under cold stress (Myzus persicae [2])
ASG[βhL]V[βA]FPRV-NH2 [compound 2320]	70	80	80	80	85	increase mortality in the absence of additional stress conditions; also recorded: increase mortality in the absence of additional stressors	33.3	–	–	–	–	–	–	–	–	–
2Abf-Suc-FT[Oic]RV-NH2 [compound 2125]	–	–	–	–	–	–	–	non-significant survival curves; also recorded: No effect	10.8 | 13.0 h	11.0 ± 12.0 | 11.0 ± 12.0 h	non-significant survival curves; also recorded: No effect	21.6 | 20.1 h	24.0 ± 9.25 | 20.5 ± 18.0 h	significantly increased mortality	–	–
ASG[βhL]VAFPRV-NH2 [compound 2315]	45.0	60.0	70.0	77.5	80.0	increase mortality in the absence of additional stressors	33.3	–	–	–	–	–	–	–	increase mortality in the absence of additional stress conditions	–
Ac-FF[Aib]WG-NH2 [2139-AC, reference compound]	–	–	–	–	–	–	–	No effect	19.4 | 16.7 h	22.5 ± 19.8 | 20.0 ± 14.0 h	No effect	44.0 | 40.1 h	39.0 ± 37.0 | 35.0 ± 32.0 h	–	–	acting to increase survival relative to the control
